Measurements as given in publication PMC7947795, “Rapamycin-Loaded Lipid Nanocapsules Induce Selective Inhibition of the mTORC1-Signaling Pathway in Glioblastoma Cells” (Frontiers in Bioengineering and Biotechnology, 2021).
pIC50: −log10 of the molar value.

Tests used:
[1] = Rapamycin solubility assay in oils (RP-HPLC); format: physicochemical
Description: […] […] The mixture of 90% acetonitrile and 10% water (v/v) was used as a mobile phase, and delivered at a flow rate of 2.0 mL/min. The injection volume was 10 μL and the retention time was about 2.3 min.

[2] = test system: phosphorylation of Akt on Ser473; assay: Western blot Akt-p; format: cell-based, Human; conditions: U87MG, 1 μM, 21 and 0.4% O2, 0Gy
Description: (§1) U87MG cells (2.4 × 10^5 cells/mL) harvested in the exponential growth phase were seeded in dishes in DMEM medium with 10% FBS, at 37°C in humidified atmosphere containing 5% CO2 and 21 or 0.4% O2. Once the cells incubated in the exponential growth phase, serum-contained medium was removed and replaced by serum-deprived DMEM supplemented with 1% N1 supplement. […] 8Gy radiation was performed 6 h after the treatment by Faxitron CP-160 (cf. section Irradiation Procedure).
(§2) Cells were scrapped and lysed by sonication for 10 s.
(§3) Equal amounts of protein from each sample, estimated by the Bio-Rad Protein Assay (Richmond, CA), were separated by electrophoresis through a 4–20% SDS-polyacrylamide gel (Mini-protean® TGX™ Ge, BioRad), transferred to PVDF membranes (AmershamHybond, GE Healthcare, Buckinghamshire, UK) and blocked with 4% non-fat dry milk in 1X TBS plus 0.1% Tween 20 at RT for 1 h. The membranes were washed and incubated with a primary antibody diluted in 2% BSA in 1X TBS plus 0.1% Tween 20 overnight at 4°C. The membranes were then washed and incubated again for 1 h at RT with peroxidase-conjugated anti-rabbit or anti-mouse secondary antibody. The bound antibody was detected using the enhanced chemiluminescence reagent kit SuperSignal West Femto (Thermo Scientific, Waltham, MA, USA) and read with a bioluminescence detector Image Quant Las 4000 (GE Healthcare, USA).

[3] = test system: HIF-1α protein expression; assay: Western blot HIF-1α; format: cell-based, Human; conditions: U87MG, 1 μM, 21 and 0.4% O2, 0Gy
Description: as §1, §2, §3

[4] = test system: mTOR phosphorylation (Ser2448); assay: Western blot p-mTOR/HSC70; format: cell-based, Human; conditions: U87MG, 1 μM, serum-free medium, 21 and 0.4% O2, 16 h
U87MG cells [5] = assay: MTS cytotoxicity assay; format: cell-based; conditions: Homo sapiens, U-87 MG, serum-free medium, 4 h treatment, read at 48 h
Description: Two assays were performed to determine the cytotoxicity effect of LNC-rapa on the glioblastoma cell line U87MG:MTS (3-(4,5-dimethylthiazol-2-yl)-5-(3-carboxymethoxyphenyl)-2-(4-sulfophenyl)-2H-tetrazolium) (Promega, Charbonnières, France) and clonogenic assay by crystal violet coloration (Sigma-Aldrich).
For the MTS assay, U87MG cells (5 × 10^4 cells/mL) harvested in the exponential growth phase were seeded in a 24-well plate in DMEM medium with 10% FBS, in humidified atmosphere (5% CO2) at 37°C. Once the cells incubated in the exponential growth phase, serum-contained medium was removed and replaced by serum-deprived DMEM supplemented with 1% N1 supplement (Sigma-Aldrich). […] 8Gy radiation was performed 6 h after the onset of initial treatment by Faxitron CP-160 (Faxitron X-rays, Lincolnshire, UK). Medium was changed every day. Forty-eight hours following the treatment, MTS reagent was diluted (1:5) in U87MG cell medium and incubated for 2 h at 37°C. The absorbance was measured at 492 nm using Multiskan® microplate spectrophotometer (Thermo Scientific).
Depending on the condition considered, the cells were placed throughout the experiment in a conventional 21% O2 incubator at 37°C/5% CO2 (normoxia) or 0.4% O2 (hypoxia) at 37°C/5% CO2 in an InVivO2 400 SCI-tive hypoxia workstation (Ruskinn); they are only placed in isolated flasks for the duration of the irradiations.

[6] = test system: 9L cells (rat glioma cells); parameters: method as in Tyler et al., 2011; conditions: in vitro, ref Tyler et al., 2011; cited from earlier work
U87MG cells [7] = assay: Clonogenic assay by crystal violet coloration; format: cell-based, Human; conditions: 1 μM
Description: Irradiation was performed with the CP-160 cabinet x-ray system (Faxitron, Edimex, Le Plessis Grammoire, Angers, France) which delivers a dose of 1,5 grays by min. […] Irradiation was performed with cells covered.
Once the cells incubated in the exponential growth phase, serum-contained medium was removed and replaced by serum-deprived DMEM supplemented with 1 % N1 supplement. […] 8Gy radiation was performed 6 h after the treatment by Faxitron CP-160.

[8] = Spectral analysis of rapamycin stability in Labrafac; format: physicochemical; conditions: short cycles of heating and cooling at 70°C
Source text: Spectral analysis was then made by use of the CLARIOstar microplate reader (BMG Labtech, Champigny-sur-Marne, France).

[9] = no reference given; cited from earlier work

Degradation at 90°C in oil ([1]; 90°C, 3 h, whatever the oil used): completely degraded
Dissolution rate ([1]; Captex 8000, 90°C): 0%
Dissolved rapamycin ([1]; Captex 8000, 90°C, initial 16.8 mg/mL): 0 mg/mL
Dissolution rate ([1]; Captex 8000, RT): 9.5%
Dissolved rapamycin ([1]; Captex 8000, RT, initial 19.0 mg/mL): 1.8 mg/mL
Dissolution rate ([1]; Labrafac, 90°C): 0%
Dissolved rapamycin ([1]; Labrafac, 90°C, initial 21.1 mg/mL): 0 mg/mL
Dissolution rate ([1]; Labrafac, RT): 6.3%
Dissolved rapamycin ([1]; Labrafac, RT, initial 24.0 mg/mL): 1.5 mg/mL
Dissolution rate ([1]; Miglyol 812, 90°C): 0%
Dissolved rapamycin ([1]; Miglyol 812, 90°C, initial 17.1 mg/mL): 0 mg/mL
Dissolution rate ([1]; Miglyol 812, RT): 7.3%
Dissolved rapamycin ([1]; Miglyol 812, RT, initial 19.2 mg/mL): 1.4 mg/mL
Stability of rapamycin in Labrafac [8]: confirmed
Structure (SMILES): CO[C@H]1C[C@@H]2CC[C@@H](C)[C@@](O)(O2)C(=O)C(=O)N2CCCC[C@H]2C(=O)O[C@H]([C@H](C)C[C@@H]2CC[C@@H](O)[C@H](OC)C2)CC(=O)[C@H](C)/C=C(\C)[C@@H](O)[C@@H](OC)C(=O)[C@H](C)C[C@H](C)/C=C/C=C/C=C/1C [Rapamycin]
Akt-p protein level (Ser473) [2]: enhance Akt-p protein level
HIF-1α protein expression [3]: reduced
Inhibition of mTOR phosphorylation (Ser2448) [4]: strong inhibition of mTOR phosphorylation
pIC50 (U87MG cells [5]; 0.4% pO2 (hypoxia)): 4.46
pIC50 (U87MG cells [5]; 21% pO2 (normoxia)): 4.69
concentration causing growth inhibition [6]: 0.01 µg/mL
Synergistic effect with radiation treatment (clonogenic assay) (U87MG cells [7]; 8Gy 6 h after treatment, 21 or 0.4% O2): do not exert any synergistic effect
Effect on cell survival (clonogenic assay) (U87MG cells [7]; 21 or 0.4% O2, 10 days, significant at 0.4% O2): only moderate effects
logP [9]: 4.3
